Data from US9765075B2, “Substituted bridged urea analogs as sirtuin modulators” (GLAXOSMITHKLINE LLC, priority 2013, dated 2017).

Target: T1, SIRT1 (Homo sapiens, UniProt Q96EB6)
T1 sequence (Q96EB6 1-747): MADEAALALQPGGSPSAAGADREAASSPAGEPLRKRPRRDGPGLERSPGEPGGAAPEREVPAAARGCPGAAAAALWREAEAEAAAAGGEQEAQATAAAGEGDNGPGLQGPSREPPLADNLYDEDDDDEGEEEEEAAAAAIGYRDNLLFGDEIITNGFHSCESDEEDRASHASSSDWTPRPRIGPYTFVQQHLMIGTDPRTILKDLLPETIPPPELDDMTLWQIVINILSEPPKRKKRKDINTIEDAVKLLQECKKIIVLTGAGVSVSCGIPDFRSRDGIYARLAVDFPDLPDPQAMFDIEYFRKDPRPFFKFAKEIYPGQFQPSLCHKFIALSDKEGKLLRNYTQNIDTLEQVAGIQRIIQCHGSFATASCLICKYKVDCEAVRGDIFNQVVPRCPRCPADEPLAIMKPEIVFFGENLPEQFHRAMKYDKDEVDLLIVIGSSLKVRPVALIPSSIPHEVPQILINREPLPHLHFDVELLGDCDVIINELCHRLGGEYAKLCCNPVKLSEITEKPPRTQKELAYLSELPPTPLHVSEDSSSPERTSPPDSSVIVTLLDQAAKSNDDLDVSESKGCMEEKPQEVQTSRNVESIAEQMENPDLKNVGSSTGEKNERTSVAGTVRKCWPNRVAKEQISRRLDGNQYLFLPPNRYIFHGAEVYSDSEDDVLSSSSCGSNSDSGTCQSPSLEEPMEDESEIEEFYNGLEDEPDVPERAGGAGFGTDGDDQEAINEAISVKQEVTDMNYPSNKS
Test: Trp mass spectrometry assay (SIRT1 activation)
Assay type: biochemical
Settings: Trp peptide substrate; for Tryp AVG EC1.5 (μM): concentration of test compound that results in 150% activation of SIRT1; for Emax: percent maximum fold activation of SIRT1, read-out: Tryp % Fold Act
In short: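 Activation is expressed as EC1.5, the concentration raising activity 50% above DMSO control, and as maximum percent of control. Mass-spec readout was OAADPR or deacetylated Trp peptide after a formic-acid-quenched 25-min, 25 °C reaction: 10 nM bacterially expressed His-SIRT1, 0.5 μM acetyl-p53-derived peptide, 120 μM NAD+, pH 7.5 HEPES with […].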

SMILES | Tryp AVG EC1.5 (μM) | Emax
O=C(Nc1cnccn1)N1c2nc(-c3ccc(Cl)c(Cl)c3)ccc2N2CC[C@H]1C2 [Example 461] | A (EC1.5<1 μM) | ≥ 150%
O=C(Nc1cnccn1)N1c2nc(-c3ccnc(N4CC[C@@H](F)C4)c3)ccc2N2CC[C@H]1C2 [Example 462] | B (EC1.5 1-25 μM) | ≥ 150%
O=C(Nc1ccc(F)cn1)N1c2nc(-c3ccnc(N4CC[C@H](F)C4)c3)ccc2N2CC[C@H]1C2 [Example 463] | A (EC1.5<1 μM) | ≥ 150%
O=C(Nc1cncc(F)c1)N1c2nc(-c3ccnc(N4CC[C@@H](F)C4)c3)ccc2N2CC[C@H]1C2 [Example 464] | B (EC1.5 1-25 μM) | ≥ 150%
Cc1ccc(-c2ccc3c(n2)N(C(=O)Nc2ccccn2)[C@H]2CCCN3C2)cn1 [Example 465] | B (EC1.5 1-25 μM) | ≥ 150%
Cc1nc(NC(=O)N2c3nc(-c4cccnc4)ccc3N3CCC[C@H]2C3)sc1C [Example 466] | B (EC1.5 1-25 μM) | ≥ 150%
Cc1ccc(-c2ccc3c(n2)N(C(=O)Nc2cccnn2)[C@H]2CCCN3C2)cn1 [Example 467] | B (EC1.5 1-25 μM) | ≥ 150%
Cc1cc(-c2ccc3c(n2)N(C(=O)Nc2ccncn2)[C@H]2CCN3C2)ccn1 [Example 468] | B (EC1.5 1-25 μM) | ≥ 150%
O=C(Nc1cncc(F)c1)N1c2nc(N3CC[C@H](F)C3)ccc2S(=O)(=O)N2CC[C@H]1C2 [Example 469] | C (EC1.5>25 μM) | < 150%
O=C(Nc1ccccn1)N1c2nc(-c3cncc(F)c3)ccc2N2CCC[C@H]1C2 [Example 470] | A (EC1.5<1 μM) | ≥ 150%
Cc1nc(NC(=O)N2c3nc(-c4cncc(F)c4)ccc3N3CCC[C@H]2C3)sc1C [Example 471] | B (EC1.5 1-25 μM) | ≥ 150%
O=C(Nc1cnccn1)N1c2nc(-c3cccc(C(F)(F)F)c3)ccc2N2CCC1CC2 [Example 472] | A (EC1.5<1 μM) | ≥ 150%
O=C(Nc1cccc(-c2cnco2)c1)N1c2nc(-c3cccc(C(F)(F)F)c3)ccc2N2CCC1CC2 [Example 473] | A (EC1.5<1 μM) | ≥ 150%
O=C(Nc1ccc(F)cn1)N1c2nc(-c3ccnc(N4CC[C@@H](F)C4)c3)ccc2N2CC[C@H]1C2 [Example 474] | A (EC1.5<1 μM) | ≥ 150%
O=C(Nc1cncc(F)c1)N1c2nc(-c3ccnc(N4CC[C@H](F)C4)c3)ccc2N2CC[C@H]1C2 [Example 475] | A (EC1.5<1 μM) | ≥ 150%
Cc1nc(NC(=O)N2c3nc(-c4ccccc4C#N)ccc3N3CCC[C@H]2C3)sc1C [Example 476] | B (EC1.5 1-25 μM) | ≥ 150%
Cc1ccc(-c2ccc3c(n2)N(C(=O)Nc2cncc(F)c2)[C@H]2CCCN3C2)cn1 [Example 477] | B (EC1.5 1-25 μM) | ≥ 150%
COc1cc(NC(=O)N2c3nc(-c4ccc(C)nc4)ccc3N3CCC[C@H]2C3)ncn1 [Example 478] | B (EC1.5 1-25 μM) | ≥ 150%
Cc1ccc(-c2ccc3c(n2)N(C(=O)Nc2ccncn2)[C@H]2CCCN3C2)cn1 [Example 479] | B (EC1.5 1-25 μM) | ≥ 150%
Cc1cc(-c2ccc3c(n2)N(C(=O)Nc2cccc(-c4cnco4)c2)[C@H]2CCN3C2)ccn1 [Example 480] | A (EC1.5<1 μM) | ≥ 150%
Cc1cc(-c2ccc3c(n2)N(C(=O)Nc2nc(C)c(C)s2)[C@H]2CCN3C2)ccn1 [Example 481] | A (EC1.5<1 μM) | ≥ 150%
Cc1cc(-c2ccc3c(n2)N(C(=O)Nc2cnn(C)c2)[C@H]2CCN3C2)ccn1 [Example 482] | B (EC1.5 1-25 μM) | ≥ 150%
Cc1cc(-c2ccc3c(n2)N(C(=O)Nc2ccc4cn(C)cc4c2)[C@H]2CCN3C2)ccn1 [Example 483] | A (EC1.5<1 μM) | ≥ 150%
